Measured values as given in patent publication US20160129021A1, “STERILIZATION METHOD” (UNIVERSITY OF PITTSBURGH - OF THE COMMONWEALTH SYSTEM OF …, priority 2013, published 2016).

What was measured:
GS cells [1] = assay: GS cell number after isolation from feeder cells, dispersed and counted; format: cell-based, mouse; conditions: 50 μM, 5 day treatment, vs vehicle
Description: (§1) FIG. 7A-F. Inhibition of SHP2 blocks GDNF and FGF signaling causes SSCs to detach from their niche decreases the number of SSCs in culture and disrupts spermatogenesis in vivo. […] Western blot analysis of p-ERK and ERK levels after the treatments is shown. […] The percentage of cells detached from feeder cells was determined (n=3, *=p<0.05). C) The epididymis of control and GCSHP2KO mice were stained with periodic acid Schiffs-hematoxylin. Immature germ cells in GCSHP2KO epididymis are identified with arrows. D) GS cells treated with vehicle or NSC (50 μM) as in B were isolated from feeder cells, dispersed and counted. E) Clumps of GS cells (white arrows) and feeder cells (yellow arrows) treated as in D were assayed for live (green) and dead (red) cells.
All immunostained cells and tubules from an entire testis section were counted and the number of stained cells per tubule was determined. GS cell viability was determined using the LIVE/DEAD Viability Assay kit for mammalian cells (Life Technologies)
(§2) Preparation of GS cell cultures from 6-day-old DBA/2 mice was performed as described previously (Oatley and Brinster, 2006). Briefly, a testicular cell suspension was isolated by enzymatic digestion with DNase and trypsin and filtered through a 40 uM mesh to remove cell clumps. Germ cells were then enriched from these suspensions through a 30% percoll gradient. […]

[2] = system: FGF and GDNF-mediated phosphorylation of ERK; assay: FGF/GDNF-stimulated ERK phosphorylation in GS cell cultures (western blot); format: cell-based, mouse; conditions: FGF 20 ng/ml or GDNF 20 ng/ml, pretreatment with 50 μM
Description: as §1
Isolation of THY1+ germ cells from 6-day-old DBA/2 mice was performed as described previously to produce GS cell cultures (Oatley and Brinster, 2006) (more details in Supplemental Experimental Procedures). […] SSCs were detached from feeders and FGF or GDNF were added for 10 min. Detached SSCs were then pelleted (600×g, 7 min) and the pellets were lysed in Laemmli sample buffer.
WCE boiled in Laemmli sample buffer were fractionated by 10% SDS-PAGE and transferred to Immobilon-P, PVDF membranes 90 (Millipore Corp., Bedford, Mass.). […]

GS cells [3] = assay: Detachment of GS cells from feeder cells; format: cell-based, mouse; conditions: 50 μM, 5 days, vs vehicle
Description: as §1
as §2, with “gradient. The germ cell suspensions were subjected to magnetic activated cell sorting (MACS) to select Thy1+ cells to enrich for SSCs.” for “gradient.”

spleen tissue = assay: Spleen tissue after injection into testes; format: in vivo, mouse; conditions: same animal as FIG. 11 (10 mg/kg into testes), 15 days after injection
[4] = system: spermatogenesis in testes of adult mice; assay: One injection into the testes of adult mice, sperm production; format: in vivo, mouse
[5] = system: spermatogenesis in adult mice; assay: ip injection into adult mice, testis sections stained with PAS-H; format: in vivo, mouse; conditions: 15 days later
Description: as §1, with “cells. […] Furthermore, the populations of spermatocytes and spermatids were reduced.” for “cells.”

[6] = 5 mg/kg ip daily for 3 or 7 days

In the case of `O=S(=O)(O)c1ccc2cc(/N=N/c3cc(S(=O)(=O)O)c4cccnc4c3O)ccc2c1` [NSC-87877, 8-Hydroxy-7-[(6-sulfo-2-naphthyl)azo]-5-quinolinesulfonic acid], the “reduction of the number of GS cells” value (GS cells [1]) is reported as 22%, the “FGF and GDNF-mediated phosphorylation (activation) of ERK” value [2] is reported as “decreased FGF and GDNF mediated activation of ERK” and the “FGF and GDNF-mediated phosphorylation (activation) of ERK” value ([2]; listed as NSC-878777) is reported as “inhibited the FGF and GDNF-mediated phosphorylation of ERK”. For the same compound, the “increase in the number of GS cells detached from the feeder cells” value (GS cells [3]) was 3 fold, the “damage of spleen tissue” value (spleen tissue) was “not damaged” and the “sperm production, long term” value ([4]; one injection of 10 mg/kg into the testes, adult mice, 70 days) was “loss of sperm production in some regions of the testes”. The “spermatogenesis (sperm production)” value ([4]; one injection of 40 mg/kg into the testes, adult mice, 15 days later) was “sufficient to disrupt spermatogenesis”, the fertility ([4]; single dose of 10 mg/kg or 40 mg/kg, mouse) was “effective in decreasing fertility” and the “further disruption of spermatogenesis (elongated spermatids)” value [5, 6] was “mis-localization and mis-orientation of elongated spermatids”. The “populations of spermatocytes and spermatids” value [5, 6] was “reduced”, the “spermatogonia in tubules at the periphery of the testes” value [5, 6] was “absence of spermatogonia” and the “germ cells in some tubule cross sections” value ([5]; 5 mg/kg ip daily for 7 days) was “nearly all germ cells were absent”.
